This is an account of results in PMC6728800, “Effect of piceatannol-rich passion fruit seed extract on human glyoxalase I–mediated cancer cell growth” (Biochemistry and Biophysics Reports, 2019).

pIC50: −log10 of the molar value. Like-named read-outs stand apart in the source and are kept apart here.

The target in the experiment is T1, human glyoxalase I (GLO I) (Homo sapiens, UniProt Q04760).
T1 construct: gene GLO1; recombinant GLO I
T1 sequence (Q04760 2-184): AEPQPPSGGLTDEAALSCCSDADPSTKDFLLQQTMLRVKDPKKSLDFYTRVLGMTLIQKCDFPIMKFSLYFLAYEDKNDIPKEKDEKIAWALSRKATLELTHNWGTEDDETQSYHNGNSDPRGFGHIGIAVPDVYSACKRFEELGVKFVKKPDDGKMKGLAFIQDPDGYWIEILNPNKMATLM
The experiment in a line: spectrophotometric assay of S-D-lactoylglutathione formation at […] nm with recombinant GLO I. Format: biochemical.

For `Oc1cc(O)cc(/C=C/c2ccc(O)c(O)c2)c1` [piceatannol], the pIC50 (as a rule, the IC50 on a negative log10 scale, so that one unit is a factor of ten) is 6.12.

For `Oc1cc(O)cc(C2c3c(/C=C/c4ccc(O)c(O)c4)cc(O)cc3OC2c2ccc(O)c(O)c2)c1` (centres unmarked) [scirpusin B], the pIC50 (read-out: IC50) is 5.38.
